Assay results from PubChem BioAssay AID200 (DTP/NCI, 2004).
Several values for one entry are separate records, joined by “and”; a condition that tells them apart may be missing. Equal values may be shown once. Inconclusive results and toxic doses are left out.

System: B6C3F1 mice, B16 melanoma ip, median survival T/C
Test: NCI In Vivo Anticancer Drug Screen. Data for tumor model B16 Melanoma (intraperitoneal) in B6C3F1 mice
Conditions: endpoint: median survival time, higher = longer survival
Outline: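 Tumor-bearing mice received test compound; a separate group got vehicle only. Survival was then compared, with results reported as treated over control.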

[1] = dose: 6.25 mg/kg/injection, schedule: Q01DX009 (ip), vehicle: saline with Tween-80
[2] = dose: 12.5 mg/kg/injection, schedule: Q01DX009 (ip), vehicle: saline with Tween-80
[3] = dose: 25.0 mg/kg/injection, schedule: Q01DX009 (ip), vehicle: saline with Tween-80
[4] = dose: 50.0 mg/kg/injection, schedule: Q01DX009 (ip), vehicle: saline with Tween-80
[5] = dose: 100.0 mg/kg/injection, schedule: Q01DX009 (ip), vehicle: saline with Tween-80

Q: For `CCc1cc2c(cc1C(C)=O)C(C)(C)CCC2(C)C`, which T/C [1] is on record?
A: Its T/C is 89 % of control.

Q: What about the T/C [2] of the same compound?
A: Its T/C is 95 % of control.

Q: What about the T/C [3] of the same compound?
A: Its T/C is 106 % of control.

Q: With `Nc1ccc(Cl)c2ccccc12` as the compound, how does the T/C [3] read?
A: Its T/C is 99 % of control.

Q: And the T/C [4]?
A: The T/C was 103 % of control.

Q: And the T/C [5]?
A: The T/C was 109 % of control.

Q: With `CCC(C)C(=O)O[C@H]1C(=O)O[C@@H]2C[C@H]3C(C)=CC(=O)[C@@H](O)[C@]3(C)[C@H]3[C@@H](O)[C@H](O)[C@@]4(C)OC[C@]32[C@@H]14` (stereo partly specified) as the compound, how does the T/C (dose: 1.0 mg/kg/injection, schedule: Q01DX009 (ip), vehicle: saline + alcohol) read?
A: Its T/C is 160 % of control.

Q: Which results are given for `Nc1ccc2cc(S(=O)(=O)O)cc(O)c2c1N=Nc1ccc(F)cc1`?
A: T/C [3]: 95 % of control; T/C [4]: 98 % of control; T/C [5]: 90 % of control

Q: How did the T/C (dose: 50.0 mg/kg/injection, schedule: Q01DX009 (ip), vehicle: saline + alcohol) turn out when `OC1CSC1` was run?
A: Its T/C is 109 % of control.

Q: What about the T/C (dose: 100.0 mg/kg/injection, schedule: Q01DX009 (ip), vehicle: saline + alcohol) of the same compound?
A: Its T/C is 107 % of control.

Q: And the T/C (dose: 200.0 mg/kg/injection, schedule: Q01DX009 (ip), vehicle: saline + alcohol)?
A: Its T/C is 113 % of control.

Q: What about the T/C (dose: 400.0 mg/kg/injection, schedule: Q01DX009 (ip), vehicle: saline + alcohol) of the same compound?
A: Its T/C is 112 % of control.

Q: What does the source list for `CCC(C)C(NC(=O)OCC1c2ccccc2-c2ccccc21)C(=O)O` (stereo unspecified)?
A: T/C (dose: 100.0 mg/kg/injection, schedule: Q01DX009 (ip), vehicle: Klucel (hydroxypropylcellulose) (HPC)): 101 % of control and 102 % of control; T/C (dose: 200.0 mg/kg/injection, schedule: Q01DX009 (ip), vehicle: Klucel (hydroxypropylcellulose) (HPC)): 98 % of control and 100 % of control

Q: `CC(=Nc1ccccc1)C1=C(O)C(Cc2ccccc2)NC1=O` (stereo unspecified) was tested. Which T/C (dose: 3.13 mg/kg/injection, schedule: Q01DX009 (ip), vehicle: saline with Tween-80) did it give?
A: Its T/C is 113 % of control.

Q: What about the T/C [1] of the same compound?
A: The T/C was 121 % of control.

Q: And the T/C [2]?
A: The T/C was 115 % of control and 103 % of control.

Q: What about the T/C [3] of the same compound?
A: The T/C was 119 % of control and 103 % of control.

Q: And the T/C [4]?
A: The T/C was 113 % of control.

Q: With `Nc1nc(Br)nc2c1ncn2C1CC(O)C(CO)O1` (stereo unspecified) as the compound, how does the T/C (dose: 7.5 mg/kg/injection, schedule: Q03HX009 (ip), vehicle: saline) read?
A: Its T/C is 96 % of control.

Q: And the T/C (dose: 15.0 mg/kg/injection, schedule: Q03HX009 (ip), vehicle: saline)?
A: The T/C was 96 % of control.

Q: And the T/C (dose: 30.0 mg/kg/injection, schedule: Q03HX009 (ip), vehicle: saline)?
A: The T/C was 93 % of control.

Q: And the T/C (dose: 60.0 mg/kg/injection, schedule: Q03HX009 (ip), vehicle: saline)?
A: The T/C was 101 % of control.

Q: Which T/C (dose: 6.25 mg/kg/injection, schedule: Q01DX009 (ip), vehicle: Klucel (hydroxypropylcellulose) (HPC)) does the source give for `CC(C)CC(=O)NC(C(=O)NC(C(=O)NC(CC(C)C)C(O)CC(=O)NC(C)C(=O)NC(CC(C)C)C(O)CC(=O)O)C(C)C)C(C)C` (stereo unspecified) here?
A: Its T/C is 102 % of control.

Q: What about the T/C (dose: 12.5 mg/kg/injection, schedule: Q01DX009 (ip), vehicle: Klucel (hydroxypropylcellulose) (HPC)) of the same compound?
A: The T/C was 93 % of control.

Q: And the T/C (dose: 25.0 mg/kg/injection, schedule: Q01DX009 (ip), vehicle: Klucel (hydroxypropylcellulose) (HPC))?
A: The T/C was 96 % of control.

Q: What about the T/C (dose: 50.0 mg/kg/injection, schedule: Q01DX009 (ip), vehicle: Klucel (hydroxypropylcellulose) (HPC)) of the same compound?
A: The T/C was 88 % of control.

Q: For `O=C[C@@H](CO)O[C@H](C=O)c1c[nH]c(=O)[nH]c1=O`, which T/C (dose: 25.0 mg/kg/injection, schedule: Q01DX009 (ip), vehicle: saline) is on record?
A: Its T/C is 105 % of control.

Q: What about the T/C (dose: 50.0 mg/kg/injection, schedule: Q01DX009 (ip), vehicle: saline) of the same compound?
A: Its T/C is 110 % of control.
